Source: patent US11147272B2, “Pyridone compounds and agricultural and horticultural fungicides comprising the same as active ingredients” (MITSUI CHEMICALS AGRO, INC., priority 2017, dated 2021)

Experiments:
[1] = tested on: Puccinia recondita; experiment: Test Example E: Brown rust on wheat; format: in vivo
[2] = tested on: Plasmopara viticola; experiment: Test Example G: Downy mildew on vine; settings: for Test G control value class: Downy mildew on vine (Neomuscat), 2.5 ml/pot, assessed 7 to 10 days after inoculation; for Test G control value: 7 to 10 days after inoculation
[3] = tested on: Botrytis cinerea; experiment: Test Example B: Gray mold on tomato; settings: for Test B control value class: class of control value
[4] = tested on: Phytophthora infestans; experiment: whole plant or invertebrate; format: in vivo; settings: for Test F control value class: class of control value
[5] = tested on: Blumeria graminis f. sp. hordei; experiment: Test Example D: Powdery mildew on barley; settings: for Test D control value class: class of control value
[6] = tested on: Colletotrichum orbiculare; experiment: Test Example H: Anthracnose on cucumber; settings: for Test H control value class: Anthracnose on cucumber (Sagami Hanjiro), 2.5 ml/pot, assessed 6 to 10 days after inoculation; for Test H control value: 6 to 10 days after inoculation
[7] = tested on: Alternaia brassicicola; experiment: Test Example C: Alternaria sooty spot on cabbage; format: in vivo
From the text: Seeds of a test plant (cabbage variety: Shikidori) were planted and cultivated until the cotyledons extended.
<Control Value> Control value=100{1−(n/3)}

[8] = tested on: Magnaporthe grisea; experiment: whole plant or invertebrate; format: in vivo; settings: for Test A control value class: class of control value
[9] = Brown rust on wheat, class of control value
[10] = Alternaria sooty spot on cabbage, class of control value
[11] = Brown rust on wheat, control value class
[12] = Downy mildew on vine, 250 ppm spray
[13] = Gray mold on tomato, control value class
[14] = Late blight on tomato, control value class
[15] = Powdery mildew on barley, control value class
[16] = Anthracnose on cucumber, 250 ppm spray
[17] = Alternaria sooty spot on cabbage, control value class
[18] = Blast on rice, control value class
[19] = 250 ppm drug solution sprayed on test plant
[20] = 250 ppm drug solution sprayed (2.5 ml/pot), grape Neomuscat
[21] = 250 ppm drug solution sprayed (2.5 ml/pot), cucumber Sagami Hanjiro

| SMILES | Test E control value class [1, 9] | Test G control value class ([2]; 250 ppm spray) | Test B control value class ([3]; Gray mold on tomato) | Test F control value class ([4]; Late blight on tomato) | Test D control value class ([5]; Powdery mildew on barley) | Test H control value class ([6]; 250 ppm spray) | Test C control value class [7, 10] | Test A control value class ([8]; Blast on rice) | Test E control value [1, 11] | Test G control value [2, 12] | Test B control value [3, 13] | Test F control value [4, 14] | Test D control value [5, 15] | Test H control value [6, 16] | Test C control value [7, 17] | Test A control value [8, 18] | further results |
| --- | --- | --- | --- | --- | --- | --- | --- | --- | --- | --- | --- | --- | --- | --- | --- | --- | --- |
| CCn1c(-c2ccc(Br)cc2)c(CC(C)C)cc(Br)c1=O [compound 178] | H (more than 50% control value) | L (50% or less control value) | H (more than 50% control value) | L (50% or less control value) | L (50% or less control value) | L (50% or less control value) | H (more than 50% control value) | L (50% or less control value) | – | – | – | – | – | – | – | – | – |
| CCOc1ccc(-c2c(CC)cc(Cl)c(=O)n2C)c(Cl)c1 [compound 337] | – | – | – | – | – | – | – | – | H (more than 50% control value) | L (50% or less control value) | H (more than 50% control value) | L (50% or less control value) | L (50% or less control value) | H (more than 50% control value) | L (50% or less control value) | L (50% or less control value) | – |
| CCn1c(-c2ccc(C#N)cc2)c(C(=O)C(C)C)cc(Cl)c1=O [compound 234] | – | – | – | – | – | – | – | – | L (50% or less control value) | L (50% or less control value) | L (50% or less control value) | L (50% or less control value) | L (50% or less control value) | L (50% or less control value) | H (more than 50% control value) | L (50% or less control value) | – |
| CCn1c(-c2c(F)cc(F)cc2F)c(C(O)C(C)C)cc(Cl)c1=O (centres unmarked) [compound 64] | H (more than 50% control value) | H (more than 50% control value) | H (more than 50% control value) | L (50% or less control value) | H (more than 50% control value) | H (more than 50% control value) | H (more than 50% control value) | H (more than 50% control value) | – | – | – | – | – | – | – | – | – |
| CCCCC(=O)c1cc(Cl)c(=O)n(CC)c1-c1c(F)cc(F)cc1F [compound 277] | – | – | – | – | – | – | – | – | H (more than 50% control value) | H (more than 50% control value) | H (more than 50% control value) | L (50% or less control value) | H (more than 50% control value) | H (more than 50% control value) | H (more than 50% control value) | H (more than 50% control value) | – |
| CCn1c(-c2ccc(Br)cc2)c(CC(C)C)ccc1=O [compound 175] | H (more than 50% control value) | L (50% or less control value) | H (more than 50% control value) | L (50% or less control value) | H (more than 50% control value) | L (50% or less control value) | L (50% or less control value) | L (50% or less control value) | – | – | – | – | – | – | – | – | – |
| CCn1c(-c2c(F)cccc2F)c(C(C)OC)cc(Cl)c1=O (centres unmarked) [compound 18] | H (more than 50% control value) | H (more than 50% control value) | H (more than 50% control value) | H (more than 50% control value) | H (more than 50% control value) | H (more than 50% control value) | H (more than 50% control value) | H (more than 50% control value) | – | – | – | – | – | – | – | – | – |
| CCCc1ccc(=S)n(CC)c1-c1ccc(F)cc1Cl [compound 331] | – | – | – | – | – | – | – | – | H (more than 50% control value) | L (50% or less control value) | H (more than 50% control value) | L (50% or less control value) | H (more than 50% control value) | H (more than 50% control value) | L (50% or less control value) | L (50% or less control value) | – |
| CCn1c(-c2c(F)cccc2F)c(C(C)C)cc(Cl)c1=O [compound 6] | H (more than 50% control value) | L (50% or less control value) | H (more than 50% control value) | L (50% or less control value) | H (more than 50% control value) | H (more than 50% control value) | H (more than 50% control value) | H (more than 50% control value) | – | – | – | – | – | – | – | – | – |
| CCC(C)c1ccc(=O)n(CC)c1-c1c(F)cc(F)cc1F (centres unmarked) [compound 31] | H (more than 50% control value) | H (more than 50% control value) | H (more than 50% control value) | L (50% or less control value) | H (more than 50% control value) | H (more than 50% control value) | H (more than 50% control value) | H (more than 50% control value) | – | – | – | – | – | – | – | – | – |
| CCCc1ccc(=S)n(CC)c1-c1c(F)cc(F)cc1F [compound 427] | – | – | – | – | – | – | – | – | – | – | – | – | – | – | – | – | Test E control value [1, 19]: L (50% or less control value); Test G control value [2, 20]: L (50% or less control value); Test B control value [3, 19]: H (more than 50% control value); Test F control value [4, 19]: L (50% or less control value); Test D control value [5, 19]: L (50% or less control value); Test H control value [6, 21]: H (more than 50% control value); Test C control value [7, 19]: H (more than 50% control value); Test A control value [8, 19]: L (50% or less control value) |
| CCn1c(-c2c(F)cc(F)cc2F)c(C(C)(O)CC)cc(Br)c1=O (centres unmarked) [compound 482] | – | – | – | – | – | – | – | – | – | – | – | – | – | – | – | – | Test E control value [1, 19]: H (more than 50% control value); Test G control value [2, 20]: H (more than 50% control value); Test B control value [3, 19]: H (more than 50% control value); Test F control value [4, 19]: L (50% or less control value); Test D control value [5, 19]: H (more than 50% control value); Test H control value [6, 21]: H (more than 50% control value); Test C control value [7, 19]: H (more than 50% control value); Test A control value [8, 19]: H (more than 50% control value) |
| CCn1c(-c2c(F)cc(OC)cc2F)c(C(C)C)ccc1=O [Compound No. 10, 6-(2,6-Difluoro-4-methoxyphenyl)-1-ethyl-5-isopropylpyridin-2(1H)-one] | – | – | – | – | – | – | – | – | – | – | – | – | – | – | – | – | pest or weed control at 250 µg/mL ([1]; Puccinia recondita, topical, Brown rust on wheat, class of control value, read-out: Test E control value class): > 50%; pest or weed control at 250 ppm ([2]; Plasmopara viticola, topical, read-out: Test G control value class): < 50%; pest or weed control at 250 µg/mL ([3]; Botrytis cinerea, in Solanum lycopersicum, topical, read-out: Test B control value class): > 50%; pest or weed control at 250 µg/mL ([4]; Phytophthora infestans, in Solanum lycopersicum, topical, read-out: Test F control value class): < 50%; pest or weed control at 250 µg/mL ([5]; Blumeria graminis, in Hordeum vulgare, topical, read-out: Test D control value class): > 50%; pest or weed control at 250 ppm ([6]; Colletotrichum orbiculare, in Cucumis sativus, topical, read-out: Test H control value class): > 50%; pest or weed control at 250 µg/mL ([7]; Brassica oleracea, topical, Alternaria sooty spot on cabbage, class of control value, read-out: Test C control value class): > 50%; pest or weed control at 250 µg/mL ([8]; Pyricularia oryzae, in Oryza sativa, read-out: Test A control value class): > 50% |
